Source: patent US6730665B1, “Treatment of bone cancer” (Mayo Foundation for Medical Education and Research, priority 1999, dated 2004)

How the values were obtained:
MG63 osteosarcoma cells = assay: In situ apoptosis by TUNEL assay; type: cell-based, human; settings: 10 μM, 48 h
Procedure: The effect of 2ME on in situ apoptosis was examined at the single cell level, based on labeling of DNA strand breaks using the TUNEL (terminal deoxynucleotidyl transferase-mediated dUTP nick end labeling) assay per manufacturer's protocol (Boehringer Mannheim, Indianapolis, Ind.). In this method, the ends of broken DNA strands were labeled with fluorescein-dUTP, and apoptotic cells in adherent cultures were detected by fluorescence microscopy. In brief, TUNEL assay was performed on coverslips of adherent cells contained in individual wells of a 24-well culture dish. Cells were washed once with phosphate buffered saline (PBS) and allowed to air dry before being fixed in 4% phosphate-buffered paraformaldehyde pH 7.4 (Sigma, St. Louis, Mo.) for 1 h at room temperature. Following a PBS rinse, endogenous peroxidase was blocked by incubating cells for 1 h at room temperature with 0.3% hydrogen peroxide in methanol (Sigmna). The latter was performed for the option of converting fluorescein-labeled cells to peroxidase-labeled cells and DAB chromogenic detection. Subsequent to a PBS rinse, cells were permeabilized on ice with incubation in 0.1% Triton X-100 in 0.1% sodium citrate for 2 min. Coverslips were rinsed twice in PBS before the addition of TUNEL reaction mixture (100 μl). […] Coverslips were rinsed 3 times with PBS before visualization by fluorescence microscopy. […]

[1] = test system: primary human osteoblast (HOB) cells; assay: Cell survival, viable cell count with trypan blue; type: cell-based
Procedure: (§1) MG63 and TE85 human osteosarcoma cells, and ROS 17/2.8 rat osteosarcoma cells were grown in DMEM/F12 phenol-red free medium containing 10% charcoal-stripped fetal bovine serum (FBS) and supplemented with 100 units/ml penicillin, 100 μg/ml streptomycin. Cell were incubated at 37° C. under 5% CO2 in air. Cells were plated at 5×10^4 cells per well into 24 well plates containing 1 ml of medium per well. After allowing the cells to attach overnight, media in the wells were replaced with fresh 1 ml medium. Human fetal osteoblasts (hFOB) cells and hFOB cells overexpressing estrogen receptor-alpha (hFOB-ERα) and estrogen receptor-beta (hFOB-ERβ) were grown in DMEM/F12 medium containing FBS, penicillin, streptomycin and Geneticin (300 μg/mL). The laboratory of Dr. B. L. Riggs at Mayo Clinic provided primary human osteoblast (HOB) cells. HOB cells were basically established from cancellous bone obtained as waste from orthopedic procedures and cultured as explants to generate the osteoblast-like monolayers as described by Borke et al., J. Clin. Endocrinol. Metab., 1988, 67:1299-1304. Human FOB cells and hFOB cells stably transfected with estrogen receptors (ERs) were maintained at 34° C., while all other cells were incubated at 37° C. under 5% CO2 in air.
(§2) Estrogen metabolites were diluted 1000 fold to give the final required concentrations in each well, and maintained for 72 hrs. The metabolites 2ME, 2OHE, and E2 were purchased from Sigma Chemical Company (St. Louis, Mo.). Stock solutions for each metabolite were made in 95% ethanol. Cell growth was measured by taking the viable cell count. At the end of metabolite treatment, cells were harvested, stained with trypan blue, and counted under a light microscope.

[2] = test system: Human fetal osteoblasts (hFOB) cells; assay: Cell survival, viable cell count with trypan blue; type: cell-based; settings: 2 μM, 72 h
Procedure: as §1, §2

[3] = test system: ROS 17/2.8 rat osteosarcoma cells; assay: Cell survival, viable cell count with trypan blue; type: cell-based; settings: 2 μM, 72 h
Procedure: as §1, §2

[4] = test system: TE85 human osteosarcoma cells; assay: Cell survival, viable cell count with trypan blue; type: cell-based; settings: 2 μM, 72 h
Procedure: as §1, §2

[5] = test system: hFOB cells overexpressing estrogen receptor-alpha (hFOB-ERα); assay: Cell survival, viable cell count with trypan blue; type: cell-based, human; settings: 2 μM, 72 h
Procedure: as §1, with “Human FOB cells and hFOB cells stably transfected with estrogen receptors (ERs) were maintained at 34° C., while all other cells were incubated at 37° C. under 5% CO2 in air.” left out
(§3) Estrogen metabolites were diluted 1000 fold to give the final required concentrations in each well, and maintained for 72 hrs. […] Cell growth was measured by taking the viable cell count. At the end of metabolite treatment, cells were harvested, stained with trypan blue, and counted under a light microscope.

[6] = test system: hFOB cells overexpressing estrogen receptor-beta (hFOB-ERβ); assay: Cell survival, viable cell count with trypan blue; type: cell-based, human; settings: 2 μM, 72 h
Procedure: as §1, with “Human FOB cells and hFOB cells stably transfected with estrogen receptors (ERs) were maintained at 34° C., while all other cells were incubated at 37° C. under 5% CO2 in air.” left out
as §3

estrogen receptors = settings: cited from earlier work
[7] = test system: MG63 human osteosarcoma cells; assay: Cell survival, viable cell count with trypan blue; type: cell-based; settings: for cell death: 72 hrs
Procedure: as §1, §2
MG63 cells were treated with 0, 2, and 10 μM concentrations of 2ME in the presence or absence of 100 nM ICI for 72 hours. The cells were harvested and the viable cell counts were taken after staining with trypan blue.

SMILES: COc1cc2c(cc1O)CC[C@@H]1[C@@H]2CC[C@]2(C)[C@@H](O)CC[C@@H]12 [2ME, 2-methoxyestradiol]
- TUNEL staining (MG63 osteosarcoma cells): Positive staining
- growth of normal osteoblasts (in words) [1]: not affected
- survival ([1]; 2 μM, 72 h): 89%
- cell numbers reduced to [2]: 15%
- cell numbers reduced to [3]: 19%
- cell survival rate [4]: 9%
- cell numbers reduced to [5]: 24%
- cell numbers reduced to [6]: 24%
- affinity for estrogen receptors (in words) (estrogen receptors): negligible affinity
- cell survival rate ([7]; 2 μM, 72 h): 21%
- reduction of MG63 cell survival ([7]; 2 μM, 72 hours): approximately 80%
- cell death ([7]; 20 μM): about 95%
- cell death ([7]; 50 μM): ~100%
